Test [1] is described as follows: inhibitors of SNCA 5'UTR-driven reporter translation, confirmation, H4 neuroglioma cells, luminescence (AID 1988). The format is functional, cell-based.
A short description of test [2]: inhibitors of firefly luciferase expression or activity, dose response, H4 neuroglioma cells, luminescence (AID 1990). In kind it is functional, cell-based.
Test [3] has as its target T1, Estrogen receptor (Homo sapiens, UniProt P03372).
T1 sequence (P03372 whole entry): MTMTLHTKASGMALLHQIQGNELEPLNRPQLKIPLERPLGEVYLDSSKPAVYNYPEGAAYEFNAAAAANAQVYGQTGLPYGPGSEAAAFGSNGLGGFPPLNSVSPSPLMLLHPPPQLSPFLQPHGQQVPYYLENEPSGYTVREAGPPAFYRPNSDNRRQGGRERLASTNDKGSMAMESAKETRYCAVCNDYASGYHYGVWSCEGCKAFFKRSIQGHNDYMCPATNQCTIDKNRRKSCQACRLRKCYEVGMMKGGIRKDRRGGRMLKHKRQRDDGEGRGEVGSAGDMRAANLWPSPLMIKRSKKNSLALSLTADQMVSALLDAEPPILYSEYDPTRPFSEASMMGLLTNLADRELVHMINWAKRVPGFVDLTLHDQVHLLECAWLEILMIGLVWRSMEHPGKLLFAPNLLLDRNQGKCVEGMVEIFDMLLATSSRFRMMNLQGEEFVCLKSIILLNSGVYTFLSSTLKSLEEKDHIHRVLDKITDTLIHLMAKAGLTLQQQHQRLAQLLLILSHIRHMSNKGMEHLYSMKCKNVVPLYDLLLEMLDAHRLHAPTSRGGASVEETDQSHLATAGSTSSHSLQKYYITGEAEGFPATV

A short description of test [4]: Luminescence Cell-Based Dose Response HTS to Identify Inhibitors of 5'UTR Stem-Loop Driven Prion Protein mRNA Translation in H4 Neuroglioblastoma Cells. [Related pubchem assays: 1827 (Project Summary), 1813 (Primary HTS)]. The format is functional.
The target in test [5] is T2, Estrogen receptor beta (Homo sapiens, UniProt Q92731).
T2 sequence (Q92731 whole entry): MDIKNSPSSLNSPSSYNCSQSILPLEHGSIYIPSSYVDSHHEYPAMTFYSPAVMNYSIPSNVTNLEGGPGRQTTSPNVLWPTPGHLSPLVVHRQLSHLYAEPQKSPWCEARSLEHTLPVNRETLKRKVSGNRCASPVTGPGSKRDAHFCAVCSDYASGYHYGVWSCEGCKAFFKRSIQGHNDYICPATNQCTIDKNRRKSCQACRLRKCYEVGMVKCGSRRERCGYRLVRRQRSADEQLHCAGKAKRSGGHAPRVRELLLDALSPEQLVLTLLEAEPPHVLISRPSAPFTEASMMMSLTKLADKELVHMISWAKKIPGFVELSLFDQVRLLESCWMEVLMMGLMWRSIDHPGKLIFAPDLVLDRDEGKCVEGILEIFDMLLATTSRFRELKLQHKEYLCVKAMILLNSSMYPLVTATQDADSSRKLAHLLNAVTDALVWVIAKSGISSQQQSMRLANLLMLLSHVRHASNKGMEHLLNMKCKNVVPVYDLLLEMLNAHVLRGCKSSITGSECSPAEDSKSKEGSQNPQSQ
Test [6] addresses T2, Estrogen receptor beta. Put plainly: ERβ–SRC-3 coactivator interaction inhibitors, confirmation, orthogonal assay, biochemical, ELISA, streptavidin-HRP readout (AID 1060). On the technique in general: ELISA stands for enzyme-linked immunosorbent assay.
For test [7], the target named is Voltage-dependent T-type calcium channel subunit alpha-1H (Homo sapiens, UniProt O95180). In kind it is functional.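 Further: channel activity triggered by adding a high calcium stimulation buffer.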
Chain of Voltage-dependent T-type calcium channel subunit alpha-1H (O95180 whole entry): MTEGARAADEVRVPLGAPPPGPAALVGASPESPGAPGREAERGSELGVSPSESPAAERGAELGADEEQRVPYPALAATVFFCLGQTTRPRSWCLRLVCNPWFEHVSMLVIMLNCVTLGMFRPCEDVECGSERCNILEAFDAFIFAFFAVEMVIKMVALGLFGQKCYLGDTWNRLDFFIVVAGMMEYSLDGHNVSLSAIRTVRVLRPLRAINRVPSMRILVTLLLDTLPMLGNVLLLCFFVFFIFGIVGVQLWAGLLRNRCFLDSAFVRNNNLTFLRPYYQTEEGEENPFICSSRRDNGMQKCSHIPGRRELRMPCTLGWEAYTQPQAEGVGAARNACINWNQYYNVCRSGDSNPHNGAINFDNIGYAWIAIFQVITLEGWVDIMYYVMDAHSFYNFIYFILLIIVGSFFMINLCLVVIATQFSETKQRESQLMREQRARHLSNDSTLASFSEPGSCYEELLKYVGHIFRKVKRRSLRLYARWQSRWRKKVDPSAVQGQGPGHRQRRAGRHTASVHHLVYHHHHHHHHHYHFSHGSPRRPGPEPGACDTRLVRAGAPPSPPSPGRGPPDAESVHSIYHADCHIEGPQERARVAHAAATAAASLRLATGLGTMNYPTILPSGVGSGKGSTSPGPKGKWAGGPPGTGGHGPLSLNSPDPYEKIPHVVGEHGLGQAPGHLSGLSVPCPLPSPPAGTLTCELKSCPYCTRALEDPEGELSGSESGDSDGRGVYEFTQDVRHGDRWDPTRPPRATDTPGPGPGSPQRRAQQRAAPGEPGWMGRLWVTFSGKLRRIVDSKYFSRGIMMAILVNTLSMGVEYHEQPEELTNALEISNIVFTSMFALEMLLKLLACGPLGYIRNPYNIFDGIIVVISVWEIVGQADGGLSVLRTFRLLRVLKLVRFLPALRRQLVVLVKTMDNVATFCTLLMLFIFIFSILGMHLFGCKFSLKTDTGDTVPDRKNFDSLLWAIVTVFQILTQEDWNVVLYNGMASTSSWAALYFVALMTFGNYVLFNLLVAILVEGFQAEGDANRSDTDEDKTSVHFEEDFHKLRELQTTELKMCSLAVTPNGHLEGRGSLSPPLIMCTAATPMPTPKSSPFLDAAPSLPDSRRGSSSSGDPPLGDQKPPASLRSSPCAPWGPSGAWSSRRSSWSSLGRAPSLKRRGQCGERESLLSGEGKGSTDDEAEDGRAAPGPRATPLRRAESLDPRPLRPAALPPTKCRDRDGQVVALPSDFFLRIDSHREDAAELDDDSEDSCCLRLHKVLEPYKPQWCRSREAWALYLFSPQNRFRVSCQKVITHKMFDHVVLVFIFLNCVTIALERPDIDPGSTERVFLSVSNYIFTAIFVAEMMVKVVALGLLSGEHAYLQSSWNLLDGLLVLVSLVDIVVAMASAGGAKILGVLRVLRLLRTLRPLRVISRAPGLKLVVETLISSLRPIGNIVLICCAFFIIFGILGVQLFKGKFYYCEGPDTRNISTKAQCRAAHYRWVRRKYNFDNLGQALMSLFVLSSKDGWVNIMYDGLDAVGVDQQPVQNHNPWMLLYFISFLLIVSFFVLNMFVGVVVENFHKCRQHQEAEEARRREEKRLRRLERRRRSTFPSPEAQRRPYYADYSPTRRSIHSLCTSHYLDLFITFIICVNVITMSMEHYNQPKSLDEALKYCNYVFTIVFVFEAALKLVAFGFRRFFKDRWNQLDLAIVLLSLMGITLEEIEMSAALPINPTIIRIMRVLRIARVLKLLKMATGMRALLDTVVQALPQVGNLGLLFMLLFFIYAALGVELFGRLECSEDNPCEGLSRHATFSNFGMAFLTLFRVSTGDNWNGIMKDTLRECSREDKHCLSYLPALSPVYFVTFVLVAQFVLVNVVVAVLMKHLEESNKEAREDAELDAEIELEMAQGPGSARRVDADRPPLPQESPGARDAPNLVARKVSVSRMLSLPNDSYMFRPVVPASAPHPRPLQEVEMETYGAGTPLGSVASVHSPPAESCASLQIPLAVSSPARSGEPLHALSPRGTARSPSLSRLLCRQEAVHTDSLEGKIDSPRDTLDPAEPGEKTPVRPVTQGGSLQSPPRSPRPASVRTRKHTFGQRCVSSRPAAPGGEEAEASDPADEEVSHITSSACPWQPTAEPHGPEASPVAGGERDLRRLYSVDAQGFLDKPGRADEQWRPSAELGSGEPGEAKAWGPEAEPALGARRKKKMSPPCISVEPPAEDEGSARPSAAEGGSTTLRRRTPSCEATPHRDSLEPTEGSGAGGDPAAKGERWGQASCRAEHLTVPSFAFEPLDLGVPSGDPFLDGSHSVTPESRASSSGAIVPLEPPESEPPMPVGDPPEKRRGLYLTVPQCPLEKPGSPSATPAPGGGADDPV
The target in test [8] is Peroxisome proliferator-activated receptor gamma/Nuclear receptor coactivator 2 (Homo sapiens, UniProt P37231). The test can be described thus: TR-FRET dose response biochemical High Throughput Screening assay for agonists of the steroid receptor coactivator 2 (SRC-2) recruitment by the peroxisome proliferator-activated receptor gamma (PPAR gamma): non-selective agonists. [Related pubchem assays: 1297, 1032 ]. In kind it is functional. (In general: TR-FRET usually uses a lanthanide donor and a delayed reading to cut background.)

For test [9], the target named is Peroxisome proliferator-activated receptor gamma/Nuclear receptor coactivator 3 (Homo sapiens, UniProt P37231). Put plainly: TR-FRET dose response biochemical High Throughput Screening assay for agonists of the steroid receptor coactivator 3 (SRC-3) recruitment by the peroxisome proliferator-activated receptor gamma (PPAR gamma): non-selective agonists. [Related pubchem assays: 1301 (Confirmation screen.), 1048 (Primary screen.)]. In kind it is functional.

Test [10] addresses Peroxisome proliferator-activated receptor gamma/Nuclear receptor coactivator 1 (Homo sapiens, UniProt P37231). Put plainly: TR-FRET dose response biochemical High Throughput Screening assay for agonists of the steroid receptor coactivator 1 (SRC-1) recruitment by the peroxisome proliferator-activated receptor gamma (PPAR gamma): non-selective agonists. [Related pubchem assays (depositor defined):AID1300, AID1808, AID504735, AID631]. The format is protein assay.

Test [11] deals with T3, E3 ubiquitin-protein ligase XIAP (Homo sapiens, UniProt P98170). The test can be described thus: XIAP antagonists, biochemical, IAP family, fluorescence polarization (AID 1018). The format is functional.
T3 sequence (P98170 whole entry): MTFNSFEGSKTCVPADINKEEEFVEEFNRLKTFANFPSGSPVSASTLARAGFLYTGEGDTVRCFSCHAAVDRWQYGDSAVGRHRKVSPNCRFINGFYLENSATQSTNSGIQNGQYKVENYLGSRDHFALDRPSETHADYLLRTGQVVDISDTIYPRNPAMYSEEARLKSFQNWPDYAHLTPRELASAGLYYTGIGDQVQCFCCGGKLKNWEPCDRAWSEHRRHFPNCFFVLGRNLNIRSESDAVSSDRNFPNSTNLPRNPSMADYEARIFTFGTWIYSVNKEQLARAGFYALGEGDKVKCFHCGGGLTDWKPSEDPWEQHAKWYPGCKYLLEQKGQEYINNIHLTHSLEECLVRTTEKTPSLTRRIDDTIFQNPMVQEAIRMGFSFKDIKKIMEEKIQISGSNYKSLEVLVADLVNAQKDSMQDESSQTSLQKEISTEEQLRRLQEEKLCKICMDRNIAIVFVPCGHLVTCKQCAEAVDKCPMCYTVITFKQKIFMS
The target in test [12] is T3, E3 ubiquitin-protein ligase XIAP. Put plainly: Counter Screen using XIAP-Bir3 for Chemical Antagonists of Bir1/2 domains of IAP-family anti-apoptotic proteins. [Related pubchem assays (depositor defined):AID1018, AID1449, AID1514, AID1638, AID1749, AID1750, AID488957, AID488963]. For orientation: The purpose of a counterscreen is to sort out artefacts and off-target activity.

A short description of test [13]: cells. The format is functional.
A short description of test [14]: THP-1 cell cytotoxicity, dose response, cytotoxicity control for non-replicating M. tuberculosis project (AID 489025). In kind it is functional.
The subject of test [15] is Streptococcus. The test can be described thus: Group A Streptococcus viability loss, dose response, counter-screen for streptokinase expression inhibitor project, luminescence, BacTiterGlo (AID 1915).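 Further: potency for reduction of bacterial viability or growth.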 In kind it is functional, organism-based.
A short description of test [16]: HepG2 cell cytotoxicity, dose response, cytotoxicity control for non-replicating M. tuberculosis project (AID 489018). In kind it is functional. To be noted: Mycobacterium tuberculosis.
Test [17] is described as follows: Vero E6 cell cytotoxicity, dose response, cytotoxicity control for non-replicating M. tuberculosis project, secondary assay (AID 492998). The format is functional, VeroE6. To be noted: Vero C1008.
Test [18] concerns Streptococcus sp. 'group A'. Put plainly: growth inhibition of control SK(-) GAS strain, dose response, counter-screen for streptokinase expression inhibitor project, luminescence, kanamycin, BacTiterGlo, confirmation (AID 1900). The format is functional, organism-based.
Test [19] deals with T4, Bcl-2-like protein 10 (Homo sapiens, UniProt Q9HD36).
T4 sequence (Q9HD36 whole entry): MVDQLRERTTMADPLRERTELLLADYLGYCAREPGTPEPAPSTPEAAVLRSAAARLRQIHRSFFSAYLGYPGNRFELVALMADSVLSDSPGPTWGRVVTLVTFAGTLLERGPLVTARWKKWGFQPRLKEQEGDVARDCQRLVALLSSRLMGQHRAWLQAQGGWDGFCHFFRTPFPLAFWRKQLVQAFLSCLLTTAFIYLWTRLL
Put plainly: displacers of TR3 peptide from Bcl-B, primary screen, selectivity assay for Bfl-1 inhibitor project, biochemical, fluorescence polarization, FITC-TR3 peptide (AID 748).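 Further: fluorescence polarization from a fluorescein-labelled TR3 peptide binding purified Bcl-B.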

Test [20] deals with Trypsin (Sus scrofa, UniProt P00761). The test can be described thus: porcine trypsin inhibitors, dose response, selectivity assay for Rce1 protease inhibitor project, biochemical, quenched peptide fluorescence, cherry-pick (AID 488789).
Chain of Trypsin (P00761 whole entry): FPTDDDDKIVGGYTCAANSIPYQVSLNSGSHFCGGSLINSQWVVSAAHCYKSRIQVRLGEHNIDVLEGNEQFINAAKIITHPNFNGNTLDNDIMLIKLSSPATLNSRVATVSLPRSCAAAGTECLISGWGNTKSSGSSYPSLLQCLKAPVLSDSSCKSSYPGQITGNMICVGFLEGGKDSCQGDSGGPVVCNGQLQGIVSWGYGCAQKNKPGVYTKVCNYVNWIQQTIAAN
For test [21], the target named is T5, CAAX prenyl protease 2 (Homo sapiens, UniProt Q9Y256).
T5 sequence (Q9Y256 whole entry): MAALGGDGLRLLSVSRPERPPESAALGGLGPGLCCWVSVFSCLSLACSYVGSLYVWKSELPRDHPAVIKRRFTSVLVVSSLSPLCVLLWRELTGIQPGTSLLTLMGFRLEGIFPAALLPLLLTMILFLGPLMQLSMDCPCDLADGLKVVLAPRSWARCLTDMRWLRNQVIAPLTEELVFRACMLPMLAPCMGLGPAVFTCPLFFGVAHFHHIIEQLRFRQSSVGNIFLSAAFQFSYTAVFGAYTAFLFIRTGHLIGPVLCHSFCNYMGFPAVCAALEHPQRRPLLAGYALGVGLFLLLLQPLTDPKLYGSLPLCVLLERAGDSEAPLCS
The test can be described thus: human Rce1 protease inhibitors, dose response, biochemical, yeast membranes, quenched-peptide fluorescence, cherry-pick (AID 588849).

In test [22] the target is Troponin, cardiac muscle (Homo sapiens, UniProt P19429+P45379+P63316). Put plainly: Fluorescence-based biochemical high throughput dose response assay for activators of the calcium sensitivity of cardiac Regulated Thin Filaments (RTF). [Related pubchem assays (depositor defined):AID493008, AID493018, AID504382, AID504383]. The format is protein-complex assay.

The source made the active and inactive calls. Where only a bound is given, the exact number is not on record here.

As for `COc1ccc(Cn2c(=O)[nH]c3cc(C(=O)NCc4ccc5c(c4)OCO5)ccc3c2=O)cc1`, the results for the EC50 in [1], in test [2] and in test [4] were 11 µM (active), > 120 µM (not active) and > 120 µM (not active), respectively. Besides, the IC50 in [3] was 18.9 µM (active).

As to `CSC1=N/C(=C\c2ccc(Br)o2)C(=O)S1`, the results for the IC50 in test [3], in test [5] and in [6] were 22.1 µM (active), 8.58 µM (active) and < 0.023 µM (not active), respectively.

In the case of `Cc1ccc(-c2noc(CSc3nnc(Cc4cccs4)n3-c3ccccc3)n2)cc1`, the EC50 in test [7] is 3.56 µM (active).

Turning to `CCn1c(=O)cc(SCC(=O)N2CCN(c3ccccc3F)CC2)c2ccccc21`, the EC50 in [8] was > 79.4 µM (not active); in test [9], > 79.4 µM (not active); in test [10], > 79.4 µM (inactive).

Take `Cc1cc(=O)oc2cc(OCc3ccc(C(=O)N4CCN(c5ccc([N+](=O)[O-])cc5)CC4)cc3)ccc12`: the figures for the IC50 in test [11] and in [12] were > 100 µM (not active) and > 100 µM (inactive), respectively.

As to `CCOc1ccc(-c2nnc(NC(=O)c3ccc(OCC(C)C)c(OC)c3)o2)cc1`, the IC50 in test [13] is 36.7 µM (active). The CC50 is 13.8 µM (active) in test [14], > 20 µM (active) in [16] and 10.1 µM (active) in test [17]. For the same molecule, the EC50 in test [15] is 1.76 µM (active); in [7], 11.3 µM (active); in test [18], 0.354 µM (active).

As to `COC(=O)c1sc(-c2ccccc2)cc1NC(=O)C1CC1`, the EC50 was > 79.4 µM (not active) in test [8], > 79.4 µM (not active) in test [9] and > 79.4 µM (inactive) in test [10].

Turning to `Cc1ccc(S(=O)(=O)NC(=O)c2cc(C)n(CCCn3ccnc3)c2C)cc1`, the IC50 in test [19] is 74 µM (inactive).

Consider `CC1CCN(c2oc(-c3ccc(F)cc3)nc2C#N)CC1`, for which the AC50 in test [20] is 3.18 µM (active); in [21] it was 9.46 µM (active).

With `CC(C)CN(C(=O)COC(=O)c1cc2c(s1)CCC2)C1CCS(=O)(=O)C1` (centres undefined), the IC50 in [19] is 26.6 µM (active); in [3], 2.95 µM (active); in [5], 1.91 µM (active); in [6], 1.94 µM (not active).

For `Cc1ccc(NC(=O)CN2C(=O)S/C(=C\C(=O)Nc3ccc(Cl)cc3)C2=O)cc1`, the IC50 in [11] was > 100 µM (not active); in [12], > 100 µM (inactive).

Regarding `CCCN(CCC)S(=O)(=O)c1ccc(NS(=O)(=O)c2ccc(F)cc2)cc1`, the EC50 in test [7] was 3.07 µM (active).

Take `CCN(CC(=O)Nc1ccccc1C(F)(F)F)C(=O)c1ccc(-n2nc(C)c(CCC(=O)OC)c2C)cc1`: the EC50 in [22] is > 71.5 µM (inactive).

The EC50 is the midpoint of the concentration-response curve. What is called IC50 is the point on the concentration scale where inhibition reaches its midpoint. Usually CC50 stands for the concentration at which the toxic effect on the cells reaches its halfway point. Usually AC50 stands for the midpoint of the concentration-response curve, whichever way the signal moves.

Values taken from ChEMBL document CHEMBL1201862, “PubChem BioAssay data set” (2004).
